From PMC4492822 (EMBO Molecular Medicine, 2015)

Key:
[1] = tested on: TCF4 activity in A549 cells; assay: TCF reporter assay (TOP/FOP-FLASH); assay type: cell-based, human; conditions: 0, 1, 2, and 3 μM; wild-type and β-catenin-overexpressing cells
Protocol: Transcriptional activity of TCF4 was assayed using the dual luciferase assay (Promega, Madison, WI, USA) according to the manufacturer's instructions. Briefly, 1.5 × 10^4 A549 or H1299 cells were transfected with 500 ng of TOP-FLASH and control FOP-FLASH constructs along with 50 ng of phRL Renilla constructs as transfection controls as well as with 500 ng β-catenin constructs when indicated. Cells were cultured for 24 h and then lysed in passive lysis buffer. Luminescence was detected using a luminometer (Berthold Sirius, Oak Ridge, TN, USA). Relative TCF4 promoter activity was calculated by dividing firefly luminescence by Renilla luminescence, and then normalized TOP-FLASH was divided by normalized FOP-FLASH, which was finally normalized to vector or DMSO control cells. All experiments were repeated three times, and differences were assessed by the paired t-test.

H358 = assay: Annexin V / PI flow cytometry, 72 h; assay type: cell-based
Protocol: (§1) Histograms depicting early apoptosis (Annexin V positive) and late apoptosis (PI positive) in cells treated with the indicated amounts of RK-33. Cells were either treated with DMSO (controls) or IC50 and IC75 amounts of RK-33. After 72 hours incubation, cells were harvested and stained for Annexin V and PI and analyzed by flow cytometry.

H23 = assay: Annexin V / PI flow cytometry, 72 h; assay type: cell-based
Protocol: as §1

H196 = assay: Annexin V / PI flow cytometry, 72 h; assay type: cell-based
Protocol: as §1

H460 = assay: Annexin V / PI flow cytometry, 72 h; assay type: cell-based
Protocol: as §1

H1299 = assay: Annexin V / PI flow cytometry, 72 h; assay type: cell-based
Protocol: as §1

[2] = Toxicology in SCID mice (histopathology, blood values); assay type: in vivo
Protocol: Figure 5 Toxicity studies of RK-33 in mice • Following injection of 20 mg/kg of RK-33, twice a week for 7 weeks, extensive histopathological examination was carried out following necropsy. Identical patterns were observed both in the control and in the treated mice (n = 2). Samples were stained with H&E. Scale bar is 50 μm. • Pharmacokinetics of RK-33 in SCID mice at various time intervals. Results are mean ± SD from 5 mice. LC-MS/MS method was used to determine concentration of RK-33 in mouse plasma and tissue. • Liquid chromatography–mass spectrometry (LC-MS/MS) analysis was performed to determine different metabolites of RK-33. • RK-33 and metabolites characterized by LC-MS/MS in human liver microsomes using the scan mode function of the LC-MS/MS. • HAPI cells were treated with RK-33 (10 μM), HA14-1 (25 μM), or DMSO vehicle, followed by oligomycin (oligo, 0.5 μg/ml), FCCP (3 μM), and antimycin A (AA, 1 μM) while oxygen consumption rate (OCR) was measured. Pyruvate (10 mM) was added in combination with FCCP to ensure that substrate supply was not rate-limiting for maximal OCR. Data are mean ± SD from 2 to 3 wells and representative of independent experiments performed with two different HAPI passages. OCR is baseline-normalized to the point prior to drug or vehicle addition. • HAPI microglial cells were incubated for 1 h in glucose-free XF24 assay medium that was supplemented with 2-deoxyglucose (50 mM) and pyruvate (10 mM). RK-33 (10 μM), oligomycin (0.5 μg/ml), or vehicle control was additionally present as indicated. Results are mean ± SD from 12 replicates pooled from experiments using two consecutive passages. Significance was assessed by two-sided, unpaired t-test. TEXT PRINTED IN THE PICTURE: (B) RK-33: t½e (hours): 7.31 ± 1.16 (Organ: plasma); t½e (hours): 6.70 ± 1.17 (Organ: kidney); t½e (hours): 10.01 ± 1.24 (Organ: liver); t½e (hours): 8.92 ± 1.45 (Organ: spleen); t½e (hours): 7.48 ± 1.18 (Organ: breast); t½e (hours): 7.25 ± 1.25 (Organ: lung); t½e (hours): 6.72 ± 1.23 (Organ: brain); t½e (hours): 6.25 ± 1.19 (Organ: muscle) | (C) RK-33: Mouse Microsomes + NADPH: 100% (Inc. Time: 0); Mouse Microsomes - NADPH: 100% (Inc. Time: 0); Human Microsomes + NADPH: 100% (Inc. Time: 0); Human Microsomes - NADPH: 100% (Inc. Time: 0); Mouse Microsomes + NADPH: 11% (Inc. Time: 30); Mouse Microsomes - NADPH: 80% (Inc. Time: 30); Human Microsomes + NADPH: 49% (Inc. Time: 30); Human Microsomes - NADPH: 85% (Inc. Time: 30); Mouse Microsomes + NADPH: 4% (Inc. Time: 60); Mouse Microsomes - NADPH: 69% (Inc. Time: 60); Human Microsomes + NADPH: 35% (Inc. Time: 60); Human Microsomes - NADPH: 73% (Inc. Time: 60) DOUBTS OF THE COPYIST ABOUT THIS PICTURE: Panel C prints no substance label of its own; RK-33 is taken from the other panels of the same picture / Panel C prints no unit for Inc. Time / Panel B, column head: read as t½e (hours), small print; the sign after t may be 1/2 e / Panel D (retention times and [M+H]+ of RK-33 and peaks M1-M3) was left out as LC-MS data

[3] = 7.5 uM, lower line, first value
[4] = 7.5 uM, lower line, second value

diimidazo[4,5-d:4′,5′-f]-[1,3]diazepine [RK-33]
TCF activity [1]: reduced TCF activity significantly
cells in gate of Annexin V/PI plot (H358; 11 uM, lower line, first value): 26.6
cells in gate of Annexin V/PI plot (H358; 11 uM, lower line, second value): 31.9
cells in gate of Annexin V/PI plot (H358; 11 uM, upper value of panel): 34.9
cells in gate of Annexin V/PI plot (H358; 16 uM, lower line, first value): 26.8
cells in gate of Annexin V/PI plot (H358; 16 uM, lower line, second value): 26.5
cells in gate of Annexin V/PI plot (H358; 16 uM, upper value of panel): 40.8
cells in gate of Annexin V/PI plot (H23; 5 uM, lower line, first value): 30.3
cells in gate of Annexin V/PI plot (H23; 5 uM, lower line, second value): 28.2
cells in gate of Annexin V/PI plot (H23; 5 uM, upper value of panel): 39
cells in gate of Annexin V/PI plot (H23; [3]): 17.1
cells in gate of Annexin V/PI plot (H23; [4]): 18.8
cells in gate of Annexin V/PI plot (H23; 7.5 uM, upper value of panel): 60.4
cells in gate of Annexin V/PI plot (H196; 3 uM, lower value of panel): 43.3
cells in gate of Annexin V/PI plot (H196; 3 uM, upper value of panel): 52.7
cells in gate of Annexin V/PI plot (H196; 4.5 uM, lower value of panel): 36.6
cells in gate of Annexin V/PI plot (H196; 4.5 uM, upper value of panel): 60.9
cells in gate of Annexin V/PI plot (H460; 6.5 uM, lower value of panel): 62
cells in gate of Annexin V/PI plot (H460; 6.5 uM, upper value of panel): 25.6
cells in gate of Annexin V/PI plot (H460; 9 uM, lower value of panel): 50.1
cells in gate of Annexin V/PI plot (H460; 9 uM, upper value of panel): 34.7
cells in gate of Annexin V/PI plot (H1299; [3]): 40.4
cells in gate of Annexin V/PI plot (H1299; [4]): 12.6
cells in gate of Annexin V/PI plot (H1299; 7.5 uM, upper value of panel): 33.7
cells in gate of Annexin V/PI plot (H1299; 13 uM, lower line, first value): 36
cells in gate of Annexin V/PI plot (H1299; 13 uM, lower line, second value): 7.3
cells in gate of Annexin V/PI plot (H1299; 13 uM, upper value of panel): 41.5
toxicity at the dose used ([2]; SCID mice): non-toxic
ALP ([2]; mouse, in vivo): 69 ± 5 U/l
ALT ([2]; mouse, in vivo): 72 ± 34 U/l
AST ([2]; mouse, in vivo): 224 ± 152 U/l
Albumin ([2]; mouse, in vivo): 3.05 ± 0.05 g/dL
Amylase ([2]; mouse, in vivo): 905 ± 42 U/l
BUN ([2]; mouse, in vivo): 22 ± 2.0 mg/dL
Calcium ([2]; mouse, in vivo): 9.1 ± 0.2 mg/dL
Cholesterol ([2]; mouse, in vivo): 120 ± 1 mg/dL
Creatinine ([2]; mouse, in vivo): 0.35 ± 0.05 mg/dL
Glucose ([2]; mouse, in vivo): 166 ± 4 mg/dL
Hb ([2]; mouse, in vivo): 14.7 ± 0.6 g/dL
MCV ([2]; mouse, in vivo): 55.1 ± 1.3 fL
RBC ([2]; mouse, in vivo): 10.01 ± 0.77 M/μl
Thrombocytes ([2]; mouse, in vivo): 746 ± 185 K/μl
Triglycerides ([2]; mouse, in vivo): 215 ± 14 mg/dL
WBC ([2]; mouse, in vivo): 5.83 ± 2.61 K/μl
